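Values below derive from 48-hour exposures of cells grown in 96-well plates, with endpoints linearly interpolated between the two concentrations bracketing the appropriate inhibition level. GI50: concentration for 50% inhibition of growth.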 The source made the active and inactive calls. No stated cut-off is given here; in the data, active = GI50 up to about 1.1 µM and inactive = higher.
How the values were obtained:
Experiment in all cases: NCI tumour cell line growth inhibition, 48 h
RPMI-8226 = test system: RPMI-8226
NCI/ADR-RES = test system: NCI/ADR-RES
BT-549 = test system: BT-549
SW-620 = test system: SW-620
COLO 205 = test system: COLO 205
CAKI-1 = test system: CAKI-1
SK-MEL-2 = test system: SK-MEL-2
NCI-H460 = test system: NCI-H460
HCT-116 = test system: HCT-116
SF-295 = test system: SF-295
NCI-H226 = test system: NCI-H226
SNB-75 = test system: SNB-75
SF-539 = test system: SF-539
UACC-257 = test system: UACC-257
HL-60 = test system: HL-60
CCRF-CEM = test system: CCRF-CEM
MDA-N = test system: MDA-N
ACHN = test system: ACHN
MDA-MB-231 = test system: MDA-MB-231
LOX IMVI = test system: LOX IMVI
UACC-62 = test system: UACC-62
K562 = test system: K562
SK-MEL-28 = test system: SK-MEL-28
NCI-H23 = test system: NCI-H23
NCI-H522 = test system: NCI-H522
DU-145 = test system: DU-145
786-0 = test system: 786-0
Hs-578T = test system: Hs-578T
U-251 = test system: U-251
SF-268 = test system: SF-268
OVCAR-3 = test system: OVCAR-3
A549 = test system: A549
EKVX = test system: EKVX
HOP-62 = test system: HOP-62
HCT-15 = test system: HCT-15
MDA-MB-435 = test system: MDA-MB-435
HCC 2998 = test system: HCC 2998
IGROV-1 = test system: IGROV-1
PC-3 = test system: PC-3
OVCAR-8 = test system: OVCAR-8
SNB-19 = test system: SNB-19
RXF 393 = test system: RXF 393
OVCAR-4 = test system: OVCAR-4
OVCAR-5 = test system: OVCAR-5
SK-OV-3 = test system: SK-OV-3
HOP-92 = test system: HOP-92
TK-10 = test system: TK-10
M14 = test system: M14
MOLT-4 = test system: MOLT-4
HT-29 = test system: HT-29
UO-31 = test system: UO-31
KM12 = test system: KM12
SK-MEL-5 = test system: SK-MEL-5
Malme-3M = test system: Malme-3M
MCF7 = test system: MCF7
SN12C = test system: SN12C
SR = test system: SR
T47D = test system: T47D
A498 = test system: A498

Measured: GI50

O=C(NC(Cc1ccccc1)(Cc1ccc(O)cn1)C(=O)O)c1ccccc1 (configuration not stated)
inactive: RPMI-8226 49.3 µM | NCI/ADR-RES > 100 µM | BT-549 > 100 µM | SW-620 > 100 µM | COLO 205 84.7 µM | CAKI-1 > 100 µM | SK-MEL-2 > 100 µM | NCI-H460 > 100 µM | HCT-116 58.9 µM | SF-295 92 µM | NCI-H226 83 µM | SNB-75 69.2 µM | SF-539 > 100 µM | UACC-257 > 100 µM | HL-60 16.5 µM | CCRF-CEM 25.4 µM | MDA-N > 100 µM | ACHN > 100 µM | MDA-MB-231 > 100 µM | LOX IMVI > 100 µM | UACC-62 > 100 µM | K562 > 100 µM | SK-MEL-28 > 100 µM | NCI-H23 > 100 µM | NCI-H522 > 100 µM | DU-145 > 100 µM | 786-0 > 100 µM | Hs-578T > 100 µM | U-251 > 100 µM | SF-268 > 100 µM | OVCAR-3 63 µM | A549 > 100 µM | EKVX 55.6 µM | HOP-62 > 100 µM | MDA-MB-435 > 100 µM | HCC 2998 99.1 µM | IGROV-1 > 100 µM | PC-3 76.4 µM | OVCAR-8 > 100 µM | SNB-19 > 100 µM | RXF 393 > 100 µM | OVCAR-4 98.6 µM | OVCAR-5 > 100 µM | SK-OV-3 > 100 µM | HOP-92 33.8 µM | TK-10 > 100 µM | M14 > 100 µM | MOLT-4 46.8 µM | HT-29 42.2 µM | UO-31 86.5 µM | KM12 > 100 µM | SK-MEL-5 > 100 µM | Malme-3M > 100 µM
> 100 µM: HCT-15

COP(=O)(OC)C(N)CCSC (configuration not stated)
inactive: RPMI-8226 > 100 µM | NCI/ADR-RES > 100 µM | BT-549 > 100 µM | SW-620 > 100 µM | MCF7 > 100 µM | COLO 205 > 100 µM | CAKI-1 > 100 µM | SK-MEL-2 > 100 µM | NCI-H460 > 100 µM | HCT-116 > 100 µM | SF-295 > 100 µM | NCI-H226 > 100 µM | SNB-75 > 100 µM | UACC-257 > 100 µM | HL-60 > 100 µM | CCRF-CEM > 100 µM | MDA-N > 100 µM | SN12C > 100 µM | ACHN > 100 µM | LOX IMVI > 100 µM | UACC-62 > 100 µM | K562 > 100 µM | SK-MEL-28 > 100 µM | NCI-H23 > 100 µM | NCI-H522 > 100 µM | 786-0 > 100 µM | Hs-578T > 100 µM | U-251 > 100 µM | SF-268 > 100 µM | SR > 100 µM | OVCAR-3 > 100 µM | A549 > 100 µM | EKVX > 100 µM | HOP-62 > 100 µM | MDA-MB-435 > 100 µM | IGROV-1 > 100 µM | PC-3 > 100 µM | OVCAR-8 > 100 µM | SNB-19 > 100 µM | OVCAR-4 > 100 µM | OVCAR-5 > 100 µM | SK-OV-3 > 100 µM | HOP-92 > 100 µM | TK-10 > 100 µM | M14 > 100 µM | MOLT-4 > 100 µM | HT-29 > 100 µM | UO-31 > 100 µM | KM12 > 100 µM | SK-MEL-5 > 100 µM | Malme-3M > 100 µM
> 100 µM: HCT-15

N=C(N)N/N=C/c1c(-c2ccccc2)nc2ccn3c(/C=N/N=C(N)N)c(-c4ccccc4)nc3n12
38.4 µM: HCT-15
inactive: RPMI-8226 > 100 µM | NCI/ADR-RES > 100 µM | BT-549 69 µM | SW-620 36.9 µM | MCF7 40.2 µM | COLO 205 43.3 µM | CAKI-1 > 100 µM | SK-MEL-2 > 100 µM | NCI-H460 32.2 µM | HCT-116 26.6 µM | SF-295 55.3 µM | NCI-H226 > 100 µM | SNB-75 > 100 µM | SF-539 > 100 µM | UACC-257 23.5 µM | HL-60 72.6 µM | CCRF-CEM > 100 µM | SN12C 38.8 µM | ACHN 21.8 µM | MDA-MB-231 > 100 µM | LOX IMVI 48.8 µM | UACC-62 38.9 µM | K562 > 100 µM | SK-MEL-28 39.5 µM | NCI-H23 > 100 µM | NCI-H522 21.3 µM | DU-145 58.1 µM | 786-0 82.6 µM | Hs-578T 39.5 µM | U-251 58.5 µM | SF-268 > 100 µM | OVCAR-3 68.5 µM | A549 51.2 µM | EKVX 21.9 µM | HOP-62 55.1 µM | MDA-MB-435 61.2 µM | IGROV-1 2.11 µM | PC-3 62.8 µM | OVCAR-8 26.5 µM | SNB-19 20.3 µM | RXF 393 > 100 µM | OVCAR-4 > 100 µM | T47D > 100 µM | OVCAR-5 37 µM | SK-OV-3 37.7 µM | HOP-92 > 100 µM | A498 46.8 µM | TK-10 59 µM | M14 49.3 µM | MOLT-4 > 100 µM | HT-29 34.1 µM | UO-31 46.5 µM | KM12 26.9 µM | SK-MEL-5 48.4 µM | Malme-3M 26.2 µM
